The test system of experiment [1] is M. tb V2475/MDR. Nature of the experiment: microbe, parasite or virus in culture. The conditions noted are these: Mycobacterium tuberculosis, read-out: M. tb MIC V2475/MDR. The format is cell-based.
The test system of experiment [2] is M. tb KZN494/MDR. Nature of the experiment: microbe, parasite or virus in culture. It counts as cell-based. The conditions noted are these: Mycobacterium tuberculosis, read-out: M. tb MIC KZN494/MDR.
In experiment [3] the test system is M. tb R506/XDR. Briefly: microbe, parasite or virus in culture. It counts as cell-based. The conditions noted are these: Mycobacterium tuberculosis, read-out: M. tb MIC R506/XDR.
In experiment [4] the test system is M. tb TF274/XDR. Nature of the experiment: microbe, parasite or virus in culture. The format is cell-based. The conditions noted are these: Mycobacterium tuberculosis, read-out: M. tb MIC TF274/XDR.
Experiment [5] relates to M. tb H37Rv strain. The conditions noted are these: cited from earlier work.

In brackets after ≈: the same amount, converted by molar mass. Several values for one entry are separate records, joined by “and”; a condition that tells them apart may be missing. Identical values can stand only once. Like-named read-outs stand apart in the source and are kept apart here.

Regarding `O=C(NC12CC3CC(CC(O)(C3)C1)C2)c1cc2ccc(Br)cc2[nH]1` [8i, 6-bromo-N-(3-hydroxyadamantan-1-yl)-1H-indole-2-carboxamide], the MIC was 5.14 µM (≈ 2 µg/mL) in experiment [1], 2.57 to 5.14 µM (≈ 1 to 2 µg/mL) in experiment [2], 2.57 µM (≈ 1 µg/mL) in experiment [3] and 2.57 µM (≈ 1 µg/mL) in experiment [4].
For `O=C(NC12CC3CC(CC(O)(C3)C1)C2)c1cc2c(F)cc(F)cc2[nH]1` [8l, 4,6-difluoro-N-(3-hydroxyadamantan-1-yl)-1H-indole-2-carboxamide], the MIC was determined as 5.77 µM (≈ 2 µg/mL) in experiment [1], 2.89 µM (≈ 1 µg/mL) in experiment [2], 2.89 µM (≈ 1 µg/mL) in experiment [3] and 1.44 µM (≈ 0.499 µg/mL) in experiment [4].
As for `CC[C@@H](CO)NCCN[C@@H](CC)CO` [EMB, ethambutol], the figures for the MIC in experiment [5] (listed as ethambutol) and in experiment [5] (ref 22) were 4.89 µM (≈ 0.999 µg/mL) and 4.89 [22] μM, respectively.
In the case of `NNC(=O)c1ccncc1` [INH, isoniazid], the MIC in experiment [5] (ref 22) is 0.29 μM and 0.29 [22] μM.
As to `O=C(Nc1ccc(F)c(F)c1F)NC1C2CC3CC(C2)CC1C3` (centres unmarked) [compound 4], the MIC in experiment [5] (ref 22) was 0.096 to 0.19 µM.
In the case of `COc1ccc2[nH]c(C(=O)NC34CC5CC(CC(C5)C3)C4)cc2c1` [8d, N-(1-Adamantyl)-5-methoxy-1H-indole-2-carboxamide], the MIC in experiment [1] is 0.39 to 0.77 µM (≈ 0.127 to 0.25 µg/mL); in experiment [2] it was 0.39 µM (≈ 0.127 µg/mL); in experiment [3] it was 0.39 µM (≈ 0.127 µg/mL); in experiment [4], 0.39 µM (≈ 0.127 µg/mL).
Regarding `COc1cccc2[nH]c(C(=O)NC34CC5CC(CC(C5)C3)C4)cc12` [8b, N-(1-Adamantyl)-4-methoxy-1H-indole-2-carboxamide], the MIC in experiment [1] is 0.096 µM (≈ 0.0311 µg/mL); in experiment [2], 0.048 µM (≈ 0.0156 µg/mL); in experiment [3], 0.024 to 0.048 µM (≈ 0.00779 to 0.0156 µg/mL); in experiment [4], 0.024 to 0.048 µM (≈ 0.00779 to 0.0156 µg/mL).
For `O=C(O)c1cn(C2CC2)c2cc(N3CCNCC3)c(F)cc2c1=O` [CPF, Ciprofloxacin, reference compound], the MIC in experiment [3] and in experiment [4] was 6.04 µM (≈ 2 µg/mL) each time.
For the compound `Cc1ccc2[nH]c(C(=O)NC34CC5CC(CC(C5)C3)C4)cc2c1` [8f, N-(1-Adamantyl)-5-methyl-1H-indole-2-carboxamide], the MIC in experiment [1] is 0.2 µM (≈ 0.0617 µg/mL); in experiment [2], 0.2 µM (≈ 0.0617 µg/mL); in experiment [3], 0.1 to 0.2 µM (≈ 0.0308 to 0.0617 µg/mL); in experiment [4] it was 0.1 to 0.2 µM (≈ 0.0308 to 0.0617 µg/mL).
Turning to `O=C(NC12CC3CC(CC(O)(C3)C1)C2)c1cc2c(Cl)cc(Cl)cc2[nH]1` [8j, 4,6-dichloro-N-(3-hydroxyadamantan-1-yl)-1H-indole-2-carboxamide], the MIC in experiment [1] was 2.64 µM (≈ 1 µg/mL); in experiment [2], 1.32 µM (≈ 0.501 µg/mL); in experiment [3], 0.66 µM (≈ 0.25 µg/mL); in experiment [4], 0.66 µM (≈ 0.25 µg/mL).
In the case of `O=C(NC12CC3CC(CC(C3)C1)C2)c1cc2c(F)cc(F)cc2[nH]1` [8k, N-(1-Adamantyl)-4,6-difluoro-1H-indole-2-carboxamide], the MIC was 0.024 µM (≈ 0.00793 µg/mL) in experiment [1], 0.024 µM (≈ 0.00793 µg/mL) in experiment [2], 0.012 µM (≈ 0.00396 µg/mL) in experiment [3] and 0.012 µM (≈ 0.00396 µg/mL) in experiment [4].
Take `O=C(Nc1cc(Cl)cc(Cl)c1)NC12CC3CC(CC(C3)C1)C2` [10a, 1-(1-Adamantyl)-3-(3,5-dichlorophenyl)urea]: the MIC in experiment [1] is 1.47 to 2.95 µM (≈ 0.499 to 1 µg/mL); in experiment [2], 1.47 µM (≈ 0.499 µg/mL); in experiment [3], 0.74 µM (≈ 0.251 µg/mL); in experiment [4], 0.74 µM (≈ 0.251 µg/mL).

These data come from PMC7775894 (Bioorganic chemistry, 2020).
